Experimental data: US9826761B2, “Compositions and methods for mitigating dietary sulfur in animals” (SarTec Corporation, priority 2008, dated 2017)

Columns and labels:
[1] = Titration of approx. 200 mM sulfide in 24 hour old rumen fluid with 1 M MnCl2, BaCl2 or CaCl2, silver/sulfide electrode; design: species or system Holstein cows
Description: 24 hour old undiluted rumen fluid from rumen fistulated Holstein cows was obtained. 4 ml of Na2S in water (approximately 1 M) was added to 16 ml of the rumen fluid. The final concentration of sulfide ion in the rumen fluid was approximately 200 mM. […] The progress of the reaction was followed using the same silver/sulfide electrode set-up described above (Orion, Ion Plus Silver/Sulfide 9616BNWP).

[2] = Precipitating activity: rumen fluid containing manganese compound titrated with 1.0M Na2S, silver/sulfide electrode; design: species or system Holstein cows
Description: Next, 0.28 g of MnO(II) was placed in a 100 ml beaker and 20 ml of rumen fluid was added. Then 0.17 g of MnO2(IV) was placed in 100 ml beaker and 20 ml of rumen fluid was added. Each of these compositions, in addition to a rumen fluid control, was then titrated with a 1.0M solution of Na2S. The progress of the reaction was followed using the same silver/sulfide electrode set-up described above (Orion, Ion Plus Silver/Sulfide 9616BNWP).

[Ca+2].[Cl-].[Cl-] [CaCl2]
mVolts ([1]; Volume 0.0 of 1.0M CaCl2, ~200 mM sulfide): 945.1 mVolts
mVolts ([1]; Volume 0.1 of 1.0M CaCl2, ~200 mM sulfide): 939.8 mVolts
mVolts ([1]; Volume 0.3 of 1.0M CaCl2, ~200 mM sulfide): 944.8 mVolts
mVolts ([1]; Volume 0.5 of 1.0M CaCl2, ~200 mM sulfide): 931.6 mVolts
mVolts ([1]; Volume 0.7 of 1.0M CaCl2, ~200 mM sulfide): 931.3 mVolts
mVolts ([1]; Volume 0.9 of 1.0M CaCl2, ~200 mM sulfide): 931.2 mVolts
mVolts ([1]; Volume 1.1 of 1.0M CaCl2, ~200 mM sulfide): 931.1 mVolts
mVolts ([1]; Volume 1.4 of 1.0M CaCl2, ~200 mM sulfide): 930.7 mVolts
mVolts ([1]; Volume 1.6 of 1.0M CaCl2, ~200 mM sulfide): 927.1 mVolts
mVolts ([1]; Volume 1.8 of 1.0M CaCl2, ~200 mM sulfide): 925.7 mVolts
mVolts ([1]; Volume 2.0 of 1.0M CaCl2, ~200 mM sulfide): 924.8 mVolts
mVolts ([1]; Volume 2.2 of 1.0M CaCl2, ~200 mM sulfide): 923.8 mVolts
mVolts ([1]; Volume 2.4 of 1.0M CaCl2, ~200 mM sulfide): 923.0 mVolts
mVolts ([1]; Volume 2.6 of 1.0M CaCl2, ~200 mM sulfide): 921.0 mVolts
mVolts ([1]; Volume 2.8 of 1.0M CaCl2, ~200 mM sulfide): 920.2 mVolts
mVolts ([1]; Volume 3.0 of 1.0M CaCl2, ~200 mM sulfide): 917.5 mVolts
mVolts ([1]; Volume 3.3 of 1.0M CaCl2, ~200 mM sulfide): 916.8 mVolts
mVolts ([1]; Volume 3.4 of 1.0M CaCl2, ~200 mM sulfide): 915.6 mVolts
mVolts ([1]; Volume 3.6 of 1.0M CaCl2, ~200 mM sulfide): 914.9 mVolts
mVolts ([1]; Volume 3.8 of 1.0M CaCl2, ~200 mM sulfide): 914.3 mVolts
mVolts ([1]; Volume 4.0 of 1.0M CaCl2, ~200 mM sulfide): 913.7 mVolts
mVolts ([1]; Volume 4.2 of 1.0M CaCl2, ~200 mM sulfide): 913.1 mVolts
mVolts ([1]; Volume 4.4 of 1.0M CaCl2, ~200 mM sulfide): 912.6 mVolts
mVolts ([1]; Volume 4.6 of 1.0M CaCl2, ~200 mM sulfide): 912.1 mVolts
mVolts ([1]; Volume 4.8 of 1.0M CaCl2, ~200 mM sulfide): 911.0 mVolts
mVolts ([1]; Volume 5.0 of 1.0M CaCl2, ~200 mM sulfide): 910.1 mVolts
mVolts ([1]; Volume 5.2 of 1.0M CaCl2, ~200 mM sulfide): 909.9 mVolts
mVolts ([1]; Volume 5.4 of 1.0M CaCl2, ~200 mM sulfide): 909.5 mVolts
mVolts ([1]; Volume 5.6 of 1.0M CaCl2, ~200 mM sulfide): 908.9 mVolts
mVolts ([1]; Volume 5.8 of 1.0M CaCl2, ~200 mM sulfide): 908.5 mVolts
mVolts ([1]; Volume 6.0 of 1.0M CaCl2, ~200 mM sulfide): 908.0 mVolts
mVolts ([1]; Volume 6.5 of 1.0M CaCl2, ~200 mM sulfide): 906.7 mVolts
mVolts ([1]; Volume 7.0 of 1.0M CaCl2, ~200 mM sulfide): 905.5 mVolts
mVolts ([1]; Volume 7.5 of 1.0M CaCl2, ~200 mM sulfide): 904.5 mVolts
mVolts ([1]; Volume 8.0 of 1.0M CaCl2, ~200 mM sulfide): 903.3 mVolts
mVolts ([1]; Volume 8.5 of 1.0M CaCl2, ~200 mM sulfide): 902.3 mVolts
mVolts ([1]; Volume 9.0 of 1.0M CaCl2, ~200 mM sulfide): 901.3 mVolts
mVolts ([1]; Volume 9.5 of 1.0M CaCl2, ~200 mM sulfide): 900.3 mVolts
mVolts ([1]; Volume 10.0 of 1.0M CaCl2, ~200 mM sulfide): 899.6 mVolts

[O]=[Mn]=[O] [MnO2(IV)]
mVolts ([2]; 100 mM MnO2(IV) in rumen fluid, Vol 1M Na2S 0.0): 597.2 mVolts
mVolts ([2]; 100 mM MnO2(IV) in rumen fluid, Vol 1M Na2S 0.1): 672.5 mVolts
mVolts ([2]; 100 mM MnO2(IV) in rumen fluid, Vol 1M Na2S 0.2): 679.4 mVolts
mVolts ([2]; 100 mM MnO2(IV) in rumen fluid, Vol 1M Na2S 0.3): 688.1 mVolts
mVolts ([2]; 100 mM MnO2(IV) in rumen fluid, Vol 1M Na2S 0.4): 698.0 mVolts
mVolts ([2]; 100 mM MnO2(IV) in rumen fluid, Vol 1M Na2S 0.5): 699.4 mVolts
mVolts ([2]; 100 mM MnO2(IV) in rumen fluid, Vol 1M Na2S 0.7): 709.7 mVolts
mVolts ([2]; 100 mM MnO2(IV) in rumen fluid, Vol 1M Na2S 0.8): 720.0 mVolts
mVolts ([2]; 100 mM MnO2(IV) in rumen fluid, Vol 1M Na2S 0.9): 728.2 mVolts
mVolts ([2]; 100 mM MnO2(IV) in rumen fluid, Vol 1M Na2S 1.0): 738.1 mVolts
mVolts ([2]; 100 mM MnO2(IV) in rumen fluid, Vol 1M Na2S 1.1): 732.5 mVolts
mVolts ([2]; 100 mM MnO2(IV) in rumen fluid, Vol 1M Na2S 1.2): 737.4 mVolts
mVolts ([2]; 100 mM MnO2(IV) in rumen fluid, Vol 1M Na2S 1.3): 740.0 mVolts
mVolts ([2]; 100 mM MnO2(IV) in rumen fluid, Vol 1M Na2S 1.4): 749.2 mVolts
mVolts ([2]; 100 mM MnO2(IV) in rumen fluid, Vol 1M Na2S 1.5): 742.7 mVolts
mVolts ([2]; 100 mM MnO2(IV) in rumen fluid, Vol 1M Na2S 1.8): 762.4 mVolts
mVolts ([2]; 100 mM MnO2(IV) in rumen fluid, Vol 1M Na2S 2.1): 776.0 mVolts
mVolts ([2]; 100 mM MnO2(IV) in rumen fluid, Vol 1M Na2S 2.4): 784.3 mVolts
mVolts ([2]; 100 mM MnO2(IV) in rumen fluid, Vol 1M Na2S 2.6): 791.9 mVolts
mVolts ([2]; 100 mM MnO2(IV) in rumen fluid, Vol 1M Na2S 2.8): 796.6 mVolts
mVolts ([2]; 100 mM MnO2(IV) in rumen fluid, Vol 1M Na2S 3.0): 803.1 mVolts
mVolts ([2]; 100 mM MnO2(IV) in rumen fluid, Vol 1M Na2S 3.2): 806.0 mVolts
mVolts ([2]; 100 mM MnO2(IV) in rumen fluid, Vol 1M Na2S 3.5): 817.4 mVolts
mVolts ([2]; 100 mM MnO2(IV) in rumen fluid, Vol 1M Na2S 3.7): 817.0 mVolts
mVolts ([2]; 100 mM MnO2(IV) in rumen fluid, Vol 1M Na2S 3.9): 816.5 mVolts
mVolts ([2]; 100 mM MnO2(IV) in rumen fluid, Vol 1M Na2S 4.1): 817.2 mVolts

[O]=[Mn] [MnO(II)]
mVolts ([2]; 200 mM MnO(II) in rumen fluid, Vol 1M Na2S 0.0): 604.6 mVolts
mVolts ([2]; 200 mM MnO(II) in rumen fluid, Vol 1M Na2S 0.1): 674.0 mVolts
mVolts ([2]; 200 mM MnO(II) in rumen fluid, Vol 1M Na2S 0.2): 702.9 mVolts
mVolts ([2]; 200 mM MnO(II) in rumen fluid, Vol 1M Na2S 0.4): 724.5 mVolts
mVolts ([2]; 200 mM MnO(II) in rumen fluid, Vol 1M Na2S 0.5): 745.7 mVolts
mVolts ([2]; 200 mM MnO(II) in rumen fluid, Vol 1M Na2S 0.6): 760.6 mVolts
mVolts ([2]; 200 mM MnO(II) in rumen fluid, Vol 1M Na2S 0.7): 777.3 mVolts
mVolts ([2]; 200 mM MnO(II) in rumen fluid, Vol 1M Na2S 0.8): 789.8 mVolts
mVolts ([2]; 200 mM MnO(II) in rumen fluid, Vol 1M Na2S 0.9): 803.7 mVolts
mVolts ([2]; 200 mM MnO(II) in rumen fluid, Vol 1M Na2S 1.0): 803.9 mVolts
mVolts ([2]; 200 mM MnO(II) in rumen fluid, Vol 1M Na2S 1.1): 825.2 mVolts
mVolts ([2]; 200 mM MnO(II) in rumen fluid, Vol 1M Na2S 1.3): 833.7 mVolts
mVolts ([2]; 200 mM MnO(II) in rumen fluid, Vol 1M Na2S 1.4): 843.1 mVolts
mVolts ([2]; 200 mM MnO(II) in rumen fluid, Vol 1M Na2S 1.5): 848.0 mVolts
mVolts ([2]; 200 mM MnO(II) in rumen fluid, Vol 1M Na2S 1.6): 852.1 mVolts
